Measurements from PMC13266999, “Designing Antibiotics with Inherent Resistance to Efflux as a Strategy to Revive Discovery against Multidrug-Resistant Pathogens” (Journal of Medicinal Chemistry, 2026).
≈ marks a conversion by molar mass, not a printed value. Like-named read-outs stand apart in the source and are kept apart here.

How the values were obtained:
[1] = tested on: Neisseria gonorrhoeae; experiment: MIC; assay type: cell-based
[2] = tested on: E. faecium; experiment: MIC (microbroth dilution); assay type: cell-based, Enterococcus faecium; details: for MIC: Enterococcus faecium
Description: All bacteria were maintained on tryptic soy agar (TSA), except Streptococcus spp., which were maintained on Columbia agar plates containing 5% horse blood. All bacterial assays were carried out in tryptic soy broth (TSB), except for Streptococcus spp. which were grown in cation-adjusted Mueller Hinton broth containing 2.5% lysed horse blood. Bacteria were grown to stationary phase in liquid culture overnight, with shaking at 200 rpm, before being back diluted to the relevant starting concentration for each assay below. MICs were measured by the microbroth dilution method. […] Absorbance at OD600 was read on a CLARIOstar spectrophotometer (BMG Labtech) and the MIC was defined as the minimum concentration of compound where no visible growth was detected. The compounds were prepared as a DMSO stock and equivalent concentrations of DMSO had no effect on bacterial growth. MICs were also performed in the presence of the outer membrane permeator, polymyxin b nonapeptide (PMBN) following the same MIC method but with the following variation. The 2-fold dilution series of compound was prepared as above, then 50 μL of PMBN at a final concentration of 30 μg/mL was added to relevant wells, while 50 μL/well of blank media was added to the remaining wells. Bacteria were then added at 50 μL/well for a starting concentration as above. Thirty μg/mL of PMBN had no effect on bacterial growth. The MICs were read and defined as above. All animal procedures were performed by the contract research organization Pharmacology Discovery Services Taiwan in accordance with the Guide for the Care and Use of Laboratory Animals. The procedures were approved by the Institutional Ethics Committee of Pharmacology Discovery Services Taiwan, Ltd. (approval no. AB127662), in compliance with animal welfare legislation in Taiwan.

[3] = tested on: A. baumannii; experiment: A. baumannii efflux chequerboard assay; assay type: cell-based, Acinetobacter baumannii; details: for MIC: Acinetobacter baumannii
Description: Checkerboard assays were performed by preparing two separate 2-fold dilution series of compounds in two 96 well plates, one horizontally, one vertically. […] Plates were incubated at 37 C for 20 h and the absorbance (OD600) was read on a CLARIOstar spectrophotometer (BMG Labtech). The fractional inhibitory concentration was calculated as follows: ΣFIC = [(MIC of A in combination)/(MIC of A alone)] + [(MIC of B in combination)/(MIC of B alone)].

C[C@H]1COc2c(N3CC[C@@H](Nc4ncccn4)C3)c(F)cc3c(=O)c(C(=O)O)cn1c23 [Compound 46, (S)-9-Fluoro-3-methyl-7-oxo-10-((R)-3-(pyrimidin-2-ylamino)pyrrolidin-1-yl)-2,3-dihydro-7H-[1,4]oxazino[2,3,4-ij]quinoline-6-carboxylic acid]
MIC ([1]; 2007NG046): 4 µg/mL (≈ 9.4 µM) | MIC ([1]; 2008NG057): 2 µg/mL (≈ 4.7 µM) | MIC ([1]; 2008NG097): 2 µg/mL (≈ 4.7 µM) | MIC ([1]; 2009NG514): 2 µg/mL (≈ 4.7 µM) | MIC ([1]; 2010NG122): 2 µg/mL (≈ 4.7 µM) | MIC ([1]; ATCC49226, ATCC 49226): ≤ 0.03 µg/mL | MIC ([1]; ATCC700825, ATCC 700825): ≤ 0.03 µg/mL | MIC ([1]; BAA1833, BAA-1833): ≤ 0.03 µg/mL | MIC ([1]; BAA1838, BAA-1838): ≤ 0.03 µg/mL | MIC ([1]; CCUG57595, CCUG 57595): ≤ 0.03 µg/mL | MIC ([1]; CCUG57596, CCUG 57596): 0.125 µg/mL (≈ 0.294 µM) | MIC ([1]; CCUG57597, CCUG 57597): 2 µg/mL (≈ 4.7 µM) | MIC ([1]; CCUG57598, CCUG 57598): 2 µg/mL (≈ 4.7 µM) | MIC ([1]; CCUG57599, CCUG 57599): 0.5 µg/mL (≈ 1.18 µM) | MIC ([1]; CCUG57600, CCUG 57600): 1 µg/mL (≈ 2.35 µM) | MIC ([1]; CCUG57601, CCUG 57601): ≤ 0.03 µg/mL | MIC ([1]; CCUG57602, CCUG 57602): 0.06 µg/mL (≈ 0.141 µM) | MIC ([1]; FDA-CDC AR-BANK#0165): 2 µg/mL (≈ 4.7 µM) | MIC ([1]; FDA-CDC AR-BANK#0166): 2 µg/mL (≈ 4.7 µM) | MIC ([1]; FDA-CDC AR-BANK#0167): ≤ 0.03 µg/mL | MIC ([1]; FDA-CDC AR-BANK#0168): 1 µg/mL (≈ 2.35 µM) | MIC ([1]; FDA-CDC AR-BANK#0169): 2 µg/mL (≈ 4.7 µM) | MIC ([1]; FDA-CDC AR-BANK#0170): 2 µg/mL (≈ 4.7 µM) | MIC ([1]; FDA-CDC AR-BANK#0171): 1 µg/mL (≈ 2.35 µM) | MIC ([1]; FDA-CDC AR-BANK#0172): 1 µg/mL (≈ 2.35 µM) | MIC ([1]; FDA-CDC AR-BANK#0173): 2 µg/mL (≈ 4.7 µM) | MIC ([1]; FDA-CDC AR-BANK#0174): 2 µg/mL (≈ 4.7 µM) | MIC ([1]; FDA-CDC AR-BANK#0175): ≤ 0.03 µg/mL | MIC ([1]; FDA-CDC AR-BANK#0176): 2 µg/mL (≈ 4.7 µM) | MIC ([1]; FDA-CDC AR-BANK#0177): ≤ 0.03 µg/mL | MIC ([1]; FDA-CDC AR-BANK#0178): 2 µg/mL (≈ 4.7 µM) | MIC ([1]; FDA-CDC AR-BANK#0179): ≤ 0.03 µg/mL | MIC ([1]; FDA-CDC AR-BANK#0180): 2 µg/mL (≈ 4.7 µM) | MIC ([1]; FDA-CDC AR-BANK#0181): ≤ 0.03 µg/mL | MIC ([1]; FDA-CDC AR-BANK#0182): 2 µg/mL (≈ 4.7 µM) | MIC ([1]; FDA-CDC AR-BANK#0183): 2 µg/mL (≈ 4.7 µM) | MIC ([1]; FDA-CDC AR-BANK#0184): 2 µg/mL (≈ 4.7 µM) | MIC ([1]; FDA-CDC AR-BANK#0185): 2 µg/mL (≈ 4.7 µM) | MIC ([1]; FDA-CDC AR-BANK#0186): 1 µg/mL (≈ 2.35 µM) | MIC ([1]; FDA-CDC AR-BANK#0187): 2 µg/mL (≈ 4.7 µM) | MIC ([1]; FDA-CDC AR-BANK#0188): 1 µg/mL (≈ 2.35 µM) | MIC ([1]; FDA-CDC AR-BANK#0189): 2 µg/mL (≈ 4.7 µM) | MIC ([1]; FDA-CDC AR-BANK#0190): 2 µg/mL (≈ 4.7 µM) | MIC ([1]; FDA-CDC AR-BANK#0191): 2 µg/mL (≈ 4.7 µM) | MIC ([1]; FDA-CDC AR-BANK#0192): 2 µg/mL (≈ 4.7 µM) | MIC ([1]; FDA-CDC AR-BANK#0193): ≤ 0.03 µg/mL | MIC ([1]; FDA-CDC AR-BANK#0194): ≤ 0.03 µg/mL | MIC ([1]; FDA-CDC AR-BANK#0195): 2 µg/mL (≈ 4.7 µM) | MIC ([1]; FDA-CDC AR-BANK#0196): 2 µg/mL (≈ 4.7 µM) | MIC ([1]; FDA-CDC AR-BANK#0197): 2 µg/mL (≈ 4.7 µM) | MIC ([1]; FDA-CDC AR-BANK#0198): 2 µg/mL (≈ 4.7 µM) | MIC ([1]; FDA-CDC AR-BANK#0199): ≤ 0.03 µg/mL | MIC ([1]; FDA-CDC AR-BANK#0200): 2 µg/mL (≈ 4.7 µM) | MIC ([1]; FDA-CDC AR-BANK#0201): 2 µg/mL (≈ 4.7 µM) | MIC ([1]; FDA-CDC AR-BANK#0202): ≤ 0.03 µg/mL | MIC ([1]; FDA-CDC AR-BANK#0203): 2 µg/mL (≈ 4.7 µM) | MIC ([1]; FDA-CDC AR-BANK#0204): 2 µg/mL (≈ 4.7 µM) | MIC ([1]; FDA-CDC AR-BANK#0205): 2 µg/mL (≈ 4.7 µM) | MIC ([1]; FDA-CDC AR-BANK#0206): 2 µg/mL (≈ 4.7 µM) | MIC ([1]; FDA-CDC AR-BANK#0207): 2 µg/mL (≈ 4.7 µM) | MIC ([1]; FDA-CDC AR-BANK#0208): 2 µg/mL (≈ 4.7 µM) | MIC ([1]; FDA-CDC AR-BANK#0209): 2 µg/mL (≈ 4.7 µM) | MIC ([1]; FDA-CDC AR-BANK#0210): 2 µg/mL (≈ 4.7 µM) | MIC ([1]; FDA-CDC AR-BANK#0211): 2 µg/mL (≈ 4.7 µM) | MIC ([1]; FDA-CDC AR-BANK#0212): 2 µg/mL (≈ 4.7 µM) | MIC ([1]; FDA-CDC AR-BANK#0213): 1 µg/mL (≈ 2.35 µM) | MIC ([1]; FDA-CDC AR-BANK#0214): 2 µg/mL (≈ 4.7 µM) | MIC ([1]; NCTC13477, NCTC 13477): ≤ 0.125 µg/mL | MIC ([1]; NCTC13817, NCTC 13817): 0.5 µg/mL (≈ 1.18 µM) | MIC ([1]; NCTC13818, NCTC 13818): 2 µg/mL (≈ 4.7 µM) | MIC ([1]; NCTC13819, NCTC 13819): 2 µg/mL (≈ 4.7 µM) | MIC ([1]; NCTC13820, NCTC 13820): 2 µg/mL (≈ 4.7 µM) | MIC ([1]; NCTC13821, NCTC 13821): 2 µg/mL (≈ 4.7 µM) | MIC ([1]; NCTC13822, NCTC 13822): 2 µg/mL (≈ 4.7 µM) | MIC ([1]; TCDC-NG08107): 2 µg/mL (≈ 4.7 µM) | MIC90 ([1]; panel of 75 clinical isolates): 2 µg/mL (≈ 4.7 µM) | MIC ([1]; several isolates of the panel): 0.03 to 0.5 µg/mL (≈ 0.0705 to 1.18 µM)

Cc1cc(C)nc(N[C@@H]2CCN(c3c(F)cc4c(=O)c(C(=O)O)cn5c4c3OC[C@@H]5C)C2)n1 [Compound 50, (S)-10-((R)-3-((4,6-Dimethylpyrimidin-2-yl)amino)pyrrolidin-1-yl)-9-fluoro-3-methyl-7-oxo-2,3-dihydro-7H-[1,4]oxazino[2,3,4-ij]quinoline-6-carboxylic acid]
MIC ([2]; ATCC19434, ATCC 19434, read-out: MIC): 1 µg/mL (≈ 2.21 µM) | MIC ([2]; ATCC700221, VanA (ATCC 700221), read-out: MIC): 0.5 µg/mL (≈ 1.1 µM) | MIC ([2]; BAA2320, VanA (BAA-2320), read-out: MIC): 1 µg/mL (≈ 2.21 µM) | MIC ([2]; CCUG56431, VanB (CCUG 56431), read-out: MIC): 0.25 µg/mL (≈ 0.551 µM) | MIC ([2]; CCUG56858): 0.125 µg/mL (≈ 0.276 µM) | MIC ([2]; CCUG58354, VanD (CCUG 58354), read-out: MIC): 0.25 µg/mL (≈ 0.551 µM) | MIC ([2]; CCUG59167, VanA (TUH44-29; CCUG 59167), read-out: MIC): 1 µg/mL (≈ 2.21 µM) | MIC range ([2]; including VanA, VanB, and VanD phenotypes): 0.125 to 1 µg/mL

C[C@H]1COc2c(N3CCN(C)CC3)c(F)cc3c(=O)c(C(=O)O)cn1c23 [Levofloxacin, (S)-9-Fluoro-3-methyl-10-(4-methylpiperazin-1-yl)-7-oxo-2,3-dihydro-7H-[1,4]oxazino[2,3,4-ij]quinoline-6-carboxylic acid, reference compound]
MIC +50 (0.25x MIC) ([3]; A. baumannii ATCC 17978): 0.007 to 0.06 µg/mL | MIC +50 (0.5x MIC) ([3]; A. baumannii ATCC 17978): 0.009 to 0.06 µg/mL | MIC +50 (0.25x MIC) ([3]; A. baumannii AYE): 0.014 to 1.88 µg/mL | MIC +50 (0.5x MIC) ([3]; A. baumannii AYE): 0.012 to 0.9 µg/mL | MIC ([3]; ATCC17978, read-out: MIC alone): 0.125 µg/mL | MIC ([3]; read-out: MIC alone): 4 µg/mL
